No end group written: not given here.

These results are taken from publication PMC7044129, “Spexin and a Novel Cichlid-Specific Spexin Paralog Both Inhibit FSH and LH Through a Specific Galanin Receptor (Galr2b) in Tilapia” (Frontiers in Endocrinology, 2020).

In assay [1] the test system is Tilapia D2 dopamine receptor. As to conditions: COS7 cells, SRE-Luc and Gqi5. As to the method:
(§1) EC50 values were calculated from dose response curves by means of computerized non-linear curve fitting on baseline-corrected (control) values using Prism version 6 software (GraphPad).
(1 picture or pasted object on this page, not shown here)

Assay [2] deals with spexin expression. The note with it: spotted scat, in vitro; cited from earlier work. From the text: (§2) Spexin has been implicated in regulating the hypothalamic-pituitary-gonad (HPG) axis in some fish species. […] The first report on fish spexin in zebrafish and goldfish identified high and dynamic expression in the brain throughout the reproductive stages ([10]). […] Ovariectomized goldfish had increased hypothalamic spexin e ...

The target of assay [3] is tilapia Galr2a (Oreochromis niloticus, UniProt A0A650AWG9). Type of assay: cell-based, Nile tilapia (Oreochromis niloticus). As to conditions: Gqi pathway (chimeric Gqi5 with SRE-luc, Gαi readout), COS7 cells, 6 h stimulation after 16 h serum starvation, mean ± SEM, minimum three independent transfections, triplicate wells. As to the method:
as §1

For assay [4], the system named is LH release. The note with it: goldfish; cited from earlier work.
From the text: as §2

In assay [5] the test system is goldfish pituitary cultures. As to conditions: cited from earlier work.
From the text: as §2

For assay [6], the system named is agouti-related peptide (AgRP) expression. The note with it: zebrafish; cited from earlier work. From the text:
(§3) Spexin plays a role in feeding behavior and metabolism in fish and mammals [reviewed in ([3])]. In the orange-spotted grouper ([11]), half-smooth tongue sole ([46]), and spotted scat ([46]), starvation increased Spx1 expression. […] This effect was also observe ...

Assay [7] deals with feeding behavior induced by NPY and orexin. The note with it: intracerebroventricular injection; no reference printed at the sentence (preceding sentence ref 2); cited from earlier work.
From the text: as §3

The test system of assay [8] is goldfish. The note with it: injection; cited from earlier work.
From the text: as §3

The subject of assay [9] is appetite stimulants and anorexigenic factors in the brain. The note with it: goldfish brain, central administration, cited from earlier work.
From the text: as §3

The subject of assay [10] is adrenocortical cell. The note with it: mammals; cited from earlier work. From the text:
(§4) Spexin (SPX1; also termed neuropeptide Q) was identified first by computational methods in humans ([1]), and then also by chemical methods in goldfish ([2]). These computational methods have been attempted mostly on the basis of the characteristics of the prohormones from which active neuropeptides are processed. The mature peptide sequence contains 14 amino acids that are flanked by monobasic and dibasic proteolytic cleavage sites. […] A paralog o ...

The test system of assay [11] is stomach contraction. As to conditions: mammals; cited from earlier work.
From the text: as §4

The test system of assay [12] is GnIH, GnRH-III, GpHα and FSHβ expression. The note with it: sole; cited from earlier work. From the text:
Spexin mRNA expression levels may also be correlated with reproductive development. Increases in LH and FSH mRNA expression is seasonal and corresponds to gonadal development ([50], [51]).

Assay [13] concerns Galr2b. The note with it: cited from earlier work. From the text:
(§5) The galanergic neurotransmission system is one of the newest described signaling systems. […] Three different types of galanin receptors have been described so far in mammals: galanin receptor 1, 2, and 3 (GALR1, GALR2, and GALR3) ([14]). All of them are members of the G protein-coupled receptor (GPCR) family and act through stimulation of various seco ...

The test system of assay [14] is GALR2. As to conditions: cited from earlier work.
From the text: as §5

For assay [15], the system named is Galr2a. As to conditions: cited from earlier work.
From the text: as §5

In assay [16] the test system is GALR3. As to conditions: cited from earlier work.
From the text: as §5

The test system of assay [17] is GalR2. The note with it: cited from earlier work. From the text:
Spexin mediates its effects by activating an inhibitory G-protein (Gαi) via galanin receptor (GalR) 2/3. Like the kisspeptin, galanin, and spexin peptides, the kisspeptin and galanin receptors are related. Ancestral forms of KissR, GalR1, and GalR2/3 were identified on different VACs with 1R and 2R expanding each clade, giving rise to four KissR (KissR1, 3, 2, 4), two GalR1 (1a, 1b), two GalR2 (2a, 2b) and GalR3 paralogs ([15]). Our phylogenetic analysis supports that of Kim et al. ([15]), showing that GalRs are divided into two major clades, namely GalR1 and GalR2/3, with KissRs forming a dis ...

The subject of assay [18] is hypothalamic spexin expression. As to conditions: ovariectomized goldfish, estrogen replacement; cited from earlier work.
From the text: as §2

Assay [19] relates to Spx1 levels and expression. The note with it: cited from earlier work.
From the text: as §3

tilapia Galr2a, sequence (A0A650AWG9 entry or part of it): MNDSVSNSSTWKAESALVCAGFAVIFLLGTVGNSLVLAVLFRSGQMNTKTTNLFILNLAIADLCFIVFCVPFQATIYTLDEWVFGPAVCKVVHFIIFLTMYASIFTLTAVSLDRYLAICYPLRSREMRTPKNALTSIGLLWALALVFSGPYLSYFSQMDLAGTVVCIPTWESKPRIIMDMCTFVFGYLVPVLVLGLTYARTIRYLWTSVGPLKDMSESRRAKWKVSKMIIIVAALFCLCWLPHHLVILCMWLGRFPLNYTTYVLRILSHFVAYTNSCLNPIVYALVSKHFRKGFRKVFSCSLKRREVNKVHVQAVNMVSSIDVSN

Take `NCCc1ccc(O)c(O)c1` [dopamine]: the “luciferase activity via tilapia D2 receptor with Gqi5 (in words)” value in [1] is recorded as “dose-dependent increase in luciferase activity”.

Regarding `C[C@]12CC[C@@H]3c4ccc(O)cc4CC[C@H]3[C@@H]1CC[C@@H]2O` [estradiol], the spexin expression result in assay [2] was “decreased spexin expression in a dose-dependent manner in vitro”.

Consider “GWTLNSAGYLLGPHAVGNHRSFSNKNGLTS-NH2 [Galanin]”, for which, in assay [3], the EC50 amounted to 0.0001 ± 5.6 log nM.

For “Spexin: spexin of cited literature; 14 amino acid peptide hormone, species varies”, the “LH release in vivo” value in assay [4] was “inhibited LH release”. In addition, the “LH release in pituitary cultures” value in assay [5] is on record as “inhibited LH release”. Further, the AgRP expression entry in assay [6] was “suppressed agouti-related peptide (AgRP) expression”. For the same compound, the “NPY- and orexin-induced feeding” value in assay [7] was “inhibited feeding behavior induced by NPY and orexin”. The feeding behavior entry in [8] is “decreased surface feeding and increased food rejection”. Moreover, the “expression of anorexigenic factors” value in [9] (POMC, CART, CCK, MCH, CRH) is listed as “increased expression of anorexigenic factors”. Besides, the “expression of appetite stimulants” value in assay [9] was “decrease in expression of appetite stimulants (NPY, AgRP, and apelin)”. For the same compound, the adrenocortical cell proliferation entry in [10] is on record as “inhibiting adrenocortical cell proliferation”. Moreover, the stomach contraction entry in [11] is on record as “inducing stomach contraction”. In addition, in assay [12], the “GnIH and GnRH-III expression” value is “increasing gonadotropin inhibitory hormone (GnIH) and GnRH-III expression”; the “GpHα and FSHβ expression” value was “decreasing GpHα and FSHβ expression”. Further, the “functional agonism at zebrafish Galr2b” value in assay [13] is “functional agonist”. Further, the “functional agonism at human GALR2” value in assay [14] is on record as “functional agonist”. Moreover, in assay [15], the “functional agonism at zebrafish Galr2a” value is “functional agonist”. The “functional agonism at human GALR3” value in [16] was “functional agonist”. Also, the “dissociation / receptor internalization at GalR2” value in assay [17] is reported as “quickly dissociated after G-protein signaling”.

Take estrogen: the hypothalamic spexin expression entry in assay [18] is given as “returned expression to basal levels”.

As to “insulin: insulin (cited study on spexin regulation)”, the “circulating Spx1 and brain Spx1 expression” value in [19] was “increase circulating levels of Spx1 and its expression in the telencephalon, hypothalamus, and optic tectum”.
